Results published in patent US20210403460A1, “INHIBITORS OF MUTANT ISOCITRATE DEHYDROGENASES AND COMPOSITIONS AND METHODS THEREOF” (IsoCure Biosciences Inc., priority 2016, published 2021).

How the values were obtained:
Assay type in all cases: biochemical
IDH1 (R132H) = IDH1 (R132H) (Homo sapiens, UniProt O75874, R132H); assay: IDH1 R132H enzyme assay, NADPH depletion by diaphorase/resazurin coupled detection; conditions: 60 min preincubation with enzyme/NADPH, 45 min reaction, room temperature
IDH1 (R132H), sequence (O75874 whole entry R132H): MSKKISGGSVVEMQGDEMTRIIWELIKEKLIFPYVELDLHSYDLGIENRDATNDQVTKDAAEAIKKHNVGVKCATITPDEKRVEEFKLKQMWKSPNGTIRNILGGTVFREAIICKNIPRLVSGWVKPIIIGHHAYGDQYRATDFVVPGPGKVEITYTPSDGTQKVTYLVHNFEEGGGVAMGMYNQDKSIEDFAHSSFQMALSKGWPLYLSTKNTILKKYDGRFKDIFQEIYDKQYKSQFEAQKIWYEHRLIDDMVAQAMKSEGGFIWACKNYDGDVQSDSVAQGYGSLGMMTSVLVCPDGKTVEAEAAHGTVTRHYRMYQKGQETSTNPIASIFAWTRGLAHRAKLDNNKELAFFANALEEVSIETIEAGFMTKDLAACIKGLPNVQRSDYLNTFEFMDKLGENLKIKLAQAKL
Experimental: (§1) Compounds were tested against 3 enzymes WT IDH1, IDH1 R132C, IDH1 R132H
(§2) Assay Format: The production or depletion of NADPH by IDH enzymes was measured by diaphorase/resazurin coupled detection.
(§3) Reaction Procedure Mutant:
(§4) 8. Deliver enzyme/NADPH in the reaction buffer into wells of reaction plate except No Enzyme control wells. Add buffer+NADPH into No Enzyme wells. 9. Deliver compound in 100% DMSO into the enzyme mixture. Spin down and preincubate for 60 min at room temperature. 10. Deliver Substrate mixture to initiate the reaction. Spin down plate and gently shake 45 minutes at room temperature.
(§5) Detection Step (the Same as Wt):
(§6) 11. Make a 3× mix of Detection mixture in the reaction buffer, and add detection mixture into the reaction. Spin down. 12. Incubate at room temperature for 10 minutes.
(§7) 13. Measure in Envision. (Ex/Em=535/590 nm)
(§8) 14. […] (the average value of the No Enzyme wells). Average the DMSO control wells and set value as 100%. Take ratio of measured data/average DMSO control value times 100% to arrive at % activity.

IDH1 (R132C) = IDH1 (R132C) (Homo sapiens, UniProt O75874, R132C); assay: IDH1 R132C enzyme assay, NADPH depletion by diaphorase/resazurin coupled detection; conditions: 60 min preincubation with enzyme/NADPH, 45 min reaction, room temperature
IDH1 (R132C), sequence (O75874 whole entry R132C): as the sequence (O75874 whole entry R132H) above, with H132C counted along it
Experimental: as §1, §2, §3, §4, §5, §6, §7, §8

WT IDH1 = WT IDH1 (Homo sapiens, UniProt O75874); assay: Wild-type IDH1 enzyme assay, NADPH production by diaphorase/resazurin coupled detection; conditions: 60 min preincubation with enzyme/NADP, 45 min reaction, room temperature
WT IDH1, sequence (O75874 whole entry): as the sequence (O75874 whole entry R132H) above, with H132R counted along it
Experimental: as §1, §2
Reaction Procedure Wild-Type:
as §4, with “1.” for “8.”, “enzyme/NADP” for “enzyme/NADPH”, “buffer+NADP” for “buffer+NADPH”, “2.” for “9.”, “3.” for “10.”
4. Make a 3× mix of Detection mixture in the reaction buffer, and add detection mixture into the reaction. Spin down. 5. Incubate at room temperature for 10 minutes.
6. Measure in Envision. (Ex/Em=535/590 nm)
7. Subtract background (the average value of the No Enzyme control wells) from raw data. Average the DMSO control wells and set value as 100%. Take ratio of measured data/average DMSO control value times 100% to arrive at % activity.

Compound | IC50 (IDH1 (R132H)) [nM] | IC50 (IDH1 (R132C)) [nM] | IC50 (WT IDH1) [µM]
C=CC(=O)N1CCN(Cc2ccc([C@H](C)Nc3nccc(N4C(=O)OC[C@@H]4C(C)C)n3)cc2)CC1 [IS01, (S)-3-(2-(((S)-1-(4-((4-acryloylpiperazin-1-yl)methyl)phenyl)ethyl)amino)pyrimidin-4-yl)-4-isopropyloxazolidin-2-one] | 1.32 | 1.61 | 9.46
C=CC(=O)Nc1ccc(Nc2ccc([C@H](C)Nc3nccc(N4C(=O)OC[C@@H]4C(C)C)n3)cc2)cc1 [IS04, N-(4-((4-((S)-1-((4-((S)-4-isopropyl-2-oxooxazolidin-3-yl)pyrimidin-2-yl)amino)ethyl)phenyl)amino)phenyl)acrylamide] | 10.5 | 7.55 | > 10
C=CC(=O)Nc1ccc(N(C)c2cnc(C(C)Nc3nccc(N4C(=O)OC[C@@H]4C(C)C)n3)nc2)cc1 (stereo partly drawn) [IS012, N-(4-((2-(1-((4-((S)-4-isopropyl-2-oxooxazolidin-3-yl)pyrimidin-2-yl)amino)ethyl)pyrimidin-5-yl)(methyl)amino)phenyl)acrylamide] | 161 | 198 | –
C=CC(=O)Nc1cccc(-c2cnc(C(C)Nc3nccc(N4C(=O)OC[C@@H]4C(C)C)n3)nc2)c1 (stereo partly drawn) [IS013, N-(3-(2-(1-((4-((S)-4-isopropyl-2-oxooxazolidin-3-yl)pyrimidin-2-yl)amino)ethyl)pyrimidin-5-yl)phenyl)acrylamide] | 107 | 285 | –
C=CC(=O)N1CCN(Cc2ccc([C@H](C)Nc3nc(N4C(=O)OC[C@@H]4C(C)C)c4sccc4n3)cc2)CC1 [IS014, (S)-3-(2-(((S)-1-(4-((4-acryloylpiperazin-1-yl)methyl)phenyl)ethyl)amino)thieno [3,2-d]pyrimidin-4-yl)-4-isopropyloxazolidin-2-one] | – | 2.61 | –

The remaining lines, values ahead:

IC50 (IDH1 (R132H)) [nM] | IC50 (IDH1 (R132C)) [nM] | IC50 (WT IDH1) [µM] | Compound
3.61 | 3.35 | 8.52 | C=CC(=O)Nc1ccc(Nc2ccc([C@H](C)Nc3nccc(N4C(=O)OC[C@@H]4C(C)C)n3)cc2)nc1 [IS03, N-(6-((4-((S)-1-((4-((S)-4-isopropyl-2-oxooxazolidin-3-yl)pyrimidin-2-yl)amino)ethyl)phenyl)amino)pyridin-3-yl)acrylamide]
– | 4.67 | > 1.48 | C=CC(=O)Nc1cccc(Nc2ccc([C@H](C)Nc3nccc(N4C(=O)OC[C@@H]4C(C)C)n3)cc2)c1 [IS05, N-(3-((4-((S)-1-((4-((S)-4-isopropyl-2-oxooxazolidin-3-yl)pyrimidin-2-yl)amino)ethyl)phenyl)amino)phenyl)acrylamide]
340 | – | – | C=CC(=O)N1CCC(Oc2ccc(C(C)Nc3nccc(N4C(=O)OC[C@@H]4C(C)C)n3)cn2)CC1 (stereo partly drawn) [IS07, (4S)-3-(2-((1-(6-((1-acryloylpiperidin-4-yl)oxy)pyridin-3-yl)ethyl)amino)pyrimidin-4-yl)-4-isopropyloxazolidin-2-one]
